Compound: C1=CC2=C(C=C(C(=C2N=C1)O)N=NC3=CC4=C(C=C3)C=C(C=C4)S(=O)(=O)O)S(=O)(=O)O + Nc1nc2[nH]cc(CCc3ccc(C(=O)N[C@@H](CCC(=O)O)C(=O)O)cc3)c2c(=O)[nH]1 [Pemetrexed] (partner 0.2 µM)
Test: relative viability (nuclei count vs DMSO), 5 days (fraction); higher = more cells survive
Conditions: first compound 0.08 µM
Outline: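 Each reported value is a median over duplicate plates. It expresses relative viability: treated-well nuclei count divided by vehicle-well nuclei count. Lung cancer cell lines in 1536-well plates were dosed by pin tool a day after seeding, alone with one drug or with a fixed anchor-drug dose plus five library-drug doses (not always all listed) in √10 steps, and nuclei were counted after 5 days.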

| Cell Line | relative viability |
| --- | --- |
| ChaGo-K-1 | 0.256 |
| NCI-H2405 | 1.1 |
| HOP-62 | 0.263 |
| LU99A | 0.161 |
| BEN | 0.745 |
| HARA | 0.212 |
| HCC-78 | 0.915 |
| NCI-H322M | 0.663 |
| LCLC-97TM1 | 0.173 |
| NCI-H2009 | 1.07 |
| A-427 | 0.996 |
| NCI-H441 | 0.251 |
| NCI-H661 | 0.891 |
| NCI-H1734 | 0.387 |
| NCI-H460 | 0.0636 |
| NCI-H2347 | 0.44 |
| SK-LU-1 | 1.04 |
| 201T | 0.324 |
| NCI-H1915 | 0.523 |

| Cell Line | relative viability |
| --- | --- |
| HCC-827 | 0.269 |
| LXF-289 | 0.919 |
| NCI-H23 | 0.681 |
| NCI-H647 | 0.174 |
| CAL-12T | 1.25 |
| NCI-H1651 | 0.678 |
| EPLC-272H | 0.327 |
| NCI-H2228 | 0.305 |
| NCI-H1355 | 1.13 |
| NCI-H3122 | 0.194 |
| NCI-H1437 | 0.299 |
| NCI-H1755 | 0.526 |
| NCI-H2023 | 0.205 |
| HCC-15 | 0.221 |
| PC-14 | 0.127 |
| EKVX | 0.41 |
| LC-2-ad | 0.28 |
| NCI-H1975 | 0.315 |
| RERF-LC-KJ | 0.488 |

Same assay, conditions: first compound 0.253 µM

| Cell Line | relative viability |
| --- | --- |
| ChaGo-K-1 | 0.257 |
| NCI-H2405 | 1.08 |
| HOP-62 | 0.279 |
| LU99A | 0.401 |
| BEN | 0.736 |
| HARA | 0.214 |
| HCC-78 | 0.922 |
| NCI-H322M | 0.663 |
| LCLC-97TM1 | 0.18 |
| NCI-H2009 | 1.05 |
| A-427 | 1.02 |
| NCI-H441 | 0.27 |
| NCI-H661 | 0.925 |
| NCI-H1734 | 0.43 |
| NCI-H460 | 0.0585 |
| NCI-H2347 | 0.474 |
| SK-LU-1 | 0.937 |
| 201T | 0.319 |
| NCI-H1915 | 0.464 |

| Cell Line | relative viability |
| --- | --- |
| HCC-827 | 0.21 |
| LXF-289 | 0.869 |
| NCI-H23 | 0.648 |
| NCI-H647 | 0.189 |
| CAL-12T | 1.18 |
| NCI-H1651 | 0.534 |
| EPLC-272H | 0.364 |
| NCI-H2228 | 0.312 |
| NCI-H1355 | 1.05 |
| NCI-H3122 | 0.201 |
| NCI-H1437 | 0.326 |
| NCI-H1755 | 0.418 |
| NCI-H2023 | 0.223 |
| HCC-15 | 0.229 |
| PC-14 | 0.129 |
| EKVX | 0.369 |
| LC-2-ad | 0.278 |
| NCI-H1975 | 0.297 |
| RERF-LC-KJ | 0.483 |

Same assay, conditions: first compound 0.8 µM

| Cell Line | relative viability |
| --- | --- |
| ChaGo-K-1 | 0.272 |
| NCI-H2405 | 0.976 |
| HOP-62 | 0.312 |
| LU99A | 0.183 |
| BEN | 0.76 |
| HARA | 0.252 |
| HCC-78 | 0.902 |
| NCI-H322M | 0.608 |
| LCLC-97TM1 | 0.157 |
| NCI-H2009 | 0.89 |
| A-427 | 0.929 |
| NCI-H441 | 0.246 |
| NCI-H661 | 0.893 |
| NCI-H1734 | 0.417 |
| NCI-H460 | 0.066 |
| NCI-H2347 | 0.444 |
| SK-LU-1 | 0.956 |
| 201T | 0.341 |
| NCI-H1915 | 0.473 |

| Cell Line | relative viability |
| --- | --- |
| HCC-827 | 0.296 |
| LXF-289 | 0.841 |
| NCI-H23 | 0.669 |
| NCI-H647 | 0.182 |
| CAL-12T | 1.14 |
| NCI-H1651 | 0.601 |
| EPLC-272H | 0.358 |
| NCI-H2228 | 0.328 |
| NCI-H1355 | 1.02 |
| NCI-H3122 | 0.202 |
| NCI-H1437 | 0.334 |
| NCI-H1755 | 0.459 |
| NCI-H2023 | 0.265 |
| HCC-15 | 0.213 |
| PC-14 | 0.145 |
| EKVX | 0.393 |
| LC-2-ad | 0.265 |
| NCI-H1975 | 0.302 |
| RERF-LC-KJ | 0.464 |

Same assay, conditions: first compound 2.53 µM

| Cell Line | relative viability |
| --- | --- |
| ChaGo-K-1 | 0.256 |
| NCI-H2405 | 1.11 |
| HOP-62 | 0.349 |
| LU99A | 0.181 |
| BEN | 0.867 |
| HARA | 0.206 |
| HCC-78 | 0.887 |
| NCI-H322M | 0.587 |
| LCLC-97TM1 | 0.156 |
| NCI-H2009 | 1.04 |
| A-427 | 1.07 |
| NCI-H441 | 0.26 |
| NCI-H661 | 0.945 |
| NCI-H1734 | 0.421 |
| NCI-H460 | 0.0648 |
| NCI-H2347 | 0.403 |
| SK-LU-1 | 0.954 |
| 201T | 0.332 |
| NCI-H1915 | 0.461 |

| Cell Line | relative viability |
| --- | --- |
| HCC-827 | 0.224 |
| LXF-289 | 0.962 |
| NCI-H23 | 0.579 |
| NCI-H647 | 0.183 |
| CAL-12T | 1.18 |
| NCI-H1651 | 0.609 |
| EPLC-272H | 0.374 |
| NCI-H2228 | 0.334 |
| NCI-H1355 | 1.1 |
| NCI-H3122 | 0.189 |
| NCI-H1437 | 0.265 |
| NCI-H1755 | 0.489 |
| NCI-H2023 | 0.256 |
| HCC-15 | 0.235 |
| PC-14 | 0.132 |
| EKVX | 0.397 |
| LC-2-ad | 0.261 |
| NCI-H1975 | 0.29 |
| RERF-LC-KJ | 0.463 |

Same assay, conditions: first compound 8 µM

| Cell Line | relative viability |
| --- | --- |
| ChaGo-K-1 | 0.242 |
| NCI-H2405 | 0.982 |
| HOP-62 | 0.325 |
| LU99A | 0.19 |
| BEN | 0.61 |
| HARA | 0.237 |
| HCC-78 | 0.908 |
| NCI-H322M | 0.669 |
| LCLC-97TM1 | 0.161 |
